Results on two compounds are retold here after patent US4737504A, “5-fluoro-and 8-fluoro-trimetoquinol compounds and the processes for their preparation” (priority 1986, dated 1988).

For assay [1], the system named is human platelets (arachidonic acid-induced aggregation). Description: inhibition of arachidonic acid-induced platelet aggregation, human platelet-rich plasma. It is filed as cell-based. As to conditions: arachidonic acid 100-300 μM. The procedure:
(§1) The antiaggregatory and antisecretory activity on human platelets was determined by evaluating the in vitro aggregation and [^14 C]serotonin secretion in human platelet preparations. Blood was taken by venipuncture from normal human volunteers who were reported to be free of medication for at least 10 days before blood drawing. Venous blood samples were mixed with acid-citrate dextrose solution (9:1) and centrifuged at 120×g for 15 minutes at room temperature to obtain platelet-rich plasma, PRP, (Huzoor-Akbar et al., Biochem. Pharmacol., 30: 2013-2020, 1981). The PRP was transferred to polypropylene tubes and stored under an atmosphere of 8% CO2. The remaining blood was centrifuged at 1000×g for 10 minutes to obtain platelet-poor plasma. […] Platelet counts varied between 280,000 to 320,000 per cmm or were adjusted to 300,000 per cmm for the aggregation and secretion experiments. All studies were conducted within 2 hours after PRP recovery.
(§2) For aggregation studies, 0.5 ml of PRP was incubated with drug or vehicle (1-5 μl) for 1 minute at 37° C. before the initiation of aggregation with inducers. […] In all experiments, the minimum concentration of inducer (adenosine diphosphate ADP; epinephrine, E; 15S-hydroxy-11α,9α-epoxymethanoprosta-5Z,13E-dienoic acid, U46619; collagen; and arachidonic acid, AA) which caused maximal irreversible aggregation within each PRP preparation was used. Aggregation was monitored for 4 to 6 minutes after the addition of an inducer and data were presented as a percentage inhibition of either slope or maximal light transmittance changes in the presence of varying drug concentrations.

In assay [2] the target is T1, U46619-induced contractions of rat thoracic aorta (Rattus norvegicus, UniProt P34978).
T1 construct: A 2-3 cm segment of thoracic aorta was excised; tissue Harlan Industries, Inc., Cumberland, IN (animals); host or cells: rat thoracic aorta, spirally cut strips
T1 sequence (P34978 1-341): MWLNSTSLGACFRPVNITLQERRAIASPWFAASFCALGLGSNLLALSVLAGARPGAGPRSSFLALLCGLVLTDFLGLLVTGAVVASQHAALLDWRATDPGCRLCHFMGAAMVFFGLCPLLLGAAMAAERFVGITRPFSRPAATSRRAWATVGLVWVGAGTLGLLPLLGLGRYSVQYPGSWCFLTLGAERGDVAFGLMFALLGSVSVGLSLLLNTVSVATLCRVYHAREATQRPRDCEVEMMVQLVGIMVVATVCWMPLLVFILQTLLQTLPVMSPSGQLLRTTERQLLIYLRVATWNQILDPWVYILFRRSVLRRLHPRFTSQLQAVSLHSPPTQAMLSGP
Kind of assay: antagonism of U46619-induced contractions of rat thoracic aorta. It is filed as cell-based, rat (male Sprague-Dawley). As to conditions: for Kb: against U46619, read-out: pKB ± SEM (converted); for ΔpD2 of U46619: pD2 (control) - pD2 (treatment); for inhibitory potency on U46619-induced contractions greater than trimetoquinol: relative to trimetoquinol 1. The procedure:
The vasoconstrictive activity of U46619 (a stable thromboxane A2 agonist) on thoracic aorta tissue was determined as follows: Male Sprague-Dawley rats (Harlan Industries, Inc., Cumberland, IN) weighing between 250 and 350 gm were stunned and killed by cervical dislocation. A 2-3 cm segment of thoracic aorta was excised, cleaned of any adhering fat and connecting tissue, spirally cut into 2 matched strips, Constantine, supra. (2.0×0.3 cm). Strips were mounted in 10 ml tissue baths filled with the physiological salt solution in which 3×10^-6 M indomethaecin was present. A tension of 1 gm was applied to the strips. Responses of the tissues to drugs were monitored via Grass FT-03 isometric force transducers connected to a Grass Model 7C polygraph (Grass Instruments Co., Quincy, MA).
Some experiments were done in the absence of indomethacin. Concentration-dependent responses to U46619 were constructed in each preparation as described by Van Rossum, supra.
Effective concentration-50 (EC50) values of the agonists were determined graphically from individual plots of percent response versus log concentration. The potency of each agonist was expressed as a pD2 value where pD2 is equal to the negative logarithm of the experimentally determined EC50 value.
Antagonists were quantitated by calculating their pKB or pA2 values according to the methods of Furchgott, Ann. N.Y. Acad. Sci., 139: 553-570 (1967) and Arunlakshana et al., Br. J. Pharmacol., 14: 48-58 (1959). The pKB value is equivalent to the -log of [I]/(CR-1), where pKB is the negative logarithm of the apparent dissociation constant of the antagonist (KB), [I] is the concentration of the antagonist, and CR is the concentration ratio of the agonist EC50 in the presence of antagonist to the agonist EC50 in the absence of antagonist. To determine significant differences between pD2, pKB or pA2 values, a 5% level of significance was used. Arunlakshana plots were analyzed by computer according to the method of Tallarida et al., Manual of Pharmacological Calculations With Computer Programs, 29-31, (1981).

For assay [3], the system named is human platelets (arachidonic acid-induced serotonin secretion). Description: inhibition of arachidonic acid-induced serotonin secretion, human platelet-rich plasma. It is filed as cell-based. The following applies: arachidonic acid 100-300 μM. The procedure:
as §1, §2
Secretion data were calculated as the net increase of serotonin released into the supernatant by each inducer and expressed as a percentage of the total radioactivity in platelets Mayo et al., Biochem. Pharmacol., 30: 2237-2241, 1981. The effect of compounds on serotonin release was expressed as the percentage of inhibition of the maximum release by each inducer and plotted against the log molar concentrations of each agent.

Where [4] appears, read: read-out: IC50 platelet aggregation.
The mark [5] stands for this setting: read-out: pIC50 platelet aggregation (converted).
Where [6] appears, read: read-out: IC50 serotonin secretion.
Setting [7] is: read-out: pIC50 serotonin secretion (converted).

Like-named read-outs stand apart in the source and are kept apart here.

Turning to `COc1cc(CC2NCCc3c2cc(O)c(O)c3F)cc(OC)c1OC` (stereo not shown) [Compound 5-F-TMQ, 5-fluoro-trimetoquinol], the IC50 in assay [1] (setting [4]) is 77.5 µM; in assay [1] (setting [5]), 77.6 µM; in assay [3] (setting [6]), 55 µM; in assay [3] (setting [7]), 55 µM. The Kb in assay [2] (analog 1 × 10^-4 M) is 1740 nM; in assay [2] (analog 3 × 10^-5 M), 3160 nM; in assay [2] (analog 3 × 10^-6 M), 1510 nM. The “pD2 of U46619 in presence of analog” value in assay [2] (analog 1 × 10^-4 M) came out at 6.40 ± 0.16; in assay [2] (analog 3 × 10^-5 M) it was 7.14 ± 0.08; in assay [2] (analog 3 × 10^-6 M), 7.69 ± 0.08. Moreover, the “ΔpD2 of U46619” value in assay [2] (analog 1 × 10^-4 M) stood at 1.77 ± 0.16; in assay [2] (analog 3 × 10^-5 M), 1.02 ± 0.08; in assay [2] (analog 3 × 10^-6 M) it was 0.48 ± 0.07. Moreover, the “inhibitory potency on U46619-induced contractions greater than trimetoquinol” value in assay [2] is “about 2 fold”.

For `COc1cc(CC2NCCc3cc(O)c(O)c(F)c32)cc(OC)c1OC` (stereo not shown) [Compound 8-F-TMQ, 8-fluoro-trimetoquinol], the IC50 is 26.2 µM in assay [1] (setting [4]), 26.3 µM in assay [1] (setting [5]), 21.9 µM in assay [3] (setting [6]) and 21.9 µM in assay [3] (setting [7]). The Kb is 251 nM in assay [2] (analog 1 × 10^-5 M), 372 nM in assay [2] (analog 3 × 10^-5 M) and 380 nM in assay [2] (analog 3 × 10^-6 M). Also, the entries for the “pD2 of U46619 in presence of analog” value in assay [2] (analog 1 × 10^-5 M), in assay [2] (analog 3 × 10^-5 M) and in assay [2] (analog 3 × 10^-6 M) were 6.81 ± 0.12, 6.25 ± 0.14 and 7.20 ± 0.12, respectively. For the same compound, the “ΔpD2 of U46619” value came out at 1.36 ± 0.12 in assay [2] (analog 1 × 10^-5 M), 1.92 ± 0.14 in assay [2] (analog 3 × 10^-5 M) and 0.96 ± 0.19 in assay [2] (analog 3 × 10^-6 M). Further, the “inhibitory potency on U46619-induced contractions greater than trimetoquinol” value in assay [2] was ~10 fold.
